Ends that are not written are not given here.
Assays:
[1] = Circular dichroism spectroscopy; format: physicochemical; settings: CD, 50% (v/v) TFE
Description: The δ-toxins and the PSMs are characterized as α-helical peptides that form amyloid fibers^48. Although the propensity of individual peptides to form amyloids is correlated to their cytotoxicity^49, the amyloid form is not directly implicated in cell membrane disruption^50. […] CD spectroscopy was used to investigate the secondary structure of a subset of peptides within the collection (FIG. 4A, Table 5). The STIP variants adopted α-helical forms in 50% (v/v) trifluoroethanol (TFE), though unlike the full-length S. auricularis δ-toxin, they were unstructured in water. […] Specifically, peptides characterized by the greatest and least α-helical content in TFE had MICs above the highest tested threshold.
Circular dichroism spectroscopy. Peptides were dissolved in water at concentrations between 0.3 and 0.5 mg/mL. CD spectra were recorded on an Applied Photophysics Chirascan Plus CD spectrophotometer at room temperature in a 0.1 cm path-length quartz cuvette. Spectra were recorded from 180 to 260 nm.

[2] = tested on: C. albicans MYA-2876; experiment: MIC, YPD broth; format: cell-based, Candida albicans; settings: Table 8
Procedure, shortened: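 Yeast cells were diluted in YPD broth, and 180 μl aliquots were mixed with 20 μl of peptide from 2-fold serial dilutions in flat-bottom 96-well microtitre plates. Wells receiving 20 μl sterile water served as controls. After standing incubation overnight at 37° C, the MIC was taken as the lowest peptide concentration with no visible microbial growth.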

[3] = tested on: S. aureus ATCC BAA-1683 (MRSA SCCmec type IV); experiment: MIC, broth dilution; format: cell-based, Staphylococcus aureus; settings: Table 5; STIP3 variants, highest concentration 100 μg/mL
Procedure, shortened: (§1)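 Peptides (95% purity) were serially diluted 2-fold and mixed with bacteria diluted to OD 6×10^−4 in cation-adjusted Mueller Hinton broth. Standing cultures were incubated overnight at 37° C. MIC was the lowest peptide concentration with no observed growth.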

[4] = tested on: S. aureus ATCC BAA-2313 (MRSA SCCmec type XI); experiment: MIC, broth dilution; format: cell-based, Staphylococcus aureus; settings: Table 5; STIP3 variants, highest concentration 100 μg/mL
Procedure, shortened: as §1

[5] = tested on: S. aureus ATCC 29213; experiment: MIC, broth dilution; format: cell-based, Staphylococcus aureus; settings: Table 5; STIP3 variants, highest concentration 100 μg/mL
Procedure, shortened: as §1

[6] = tested on: S. aureus ATCC 33592 (MRSA SCCmec type III); experiment: MIC, broth dilution; format: cell-based, Staphylococcus aureus; settings: Table 5; STIP3 variants, highest concentration 100 μg/mL
Procedure, shortened: as §1

[7] = tested on: S. aureus ATCC BAA-42 (MRSA SCCmec type VI); experiment: MIC, broth dilution; format: cell-based, Staphylococcus aureus; settings: Table 5; STIP3 variants, highest concentration 100 μg/mL
Procedure, shortened: as §1

[8] = tested on: S. aureus ATCC BAA-2094 (MRSA SCCmec type V); experiment: MIC, broth dilution; format: cell-based, Staphylococcus aureus; settings: Table 5; STIP3 variants, highest concentration 100 μg/mL
Procedure, shortened: as §1

[9] = tested on: S. aureus ATCC BAA-44 (MRSA SCCmec type I); experiment: MIC, broth dilution; format: cell-based, Staphylococcus aureus; settings: Table 5; STIP3 variants, highest concentration 100 μg/mL
Procedure, shortened: as §1

[10] = tested on: S. aureus ATCC BAA-41 (MRSA SCCmec type II); experiment: MIC, broth dilution; format: cell-based, Staphylococcus aureus; settings: Table 5; STIP3 variants, highest concentration 100 μg/mL
Procedure, shortened: as §1

[11] = tested on: Mannheimia haemolytica ATCC 33393; experiment: MIC, broth dilution; format: cell-based; settings: Table 11; highest concentration 25 μg/mL
Procedure, shortened: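 Read-out is the lowest peptide concentration showing no growth after an overnight standing culture at 37 °C. Two-fold serial dilutions of 95%-pure peptide were tested against M. haemolytica ATCC 33393 at OD 6×10^−4 in cation-adjusted MH broth.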

[12] = tested on: Candida haemulonii AR 395; experiment: MIC, YPD broth, CDC and FDA AR Candida isolate panel; format: cell-based; settings: Table 9 below the line: only 200 or 100 μg/mL tested; values reported as 100 are ≤100 μg/mL
Procedure, shortened: (§2)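 Broth microdilution in YPD; yeast diluted to optical density […] and mixed with 2-fold serial dilutions of peptide (95% purity), water control. Standing cultures incubated overnight at 37 °C.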

[13] = tested on: Candida duobushaemulonii AR 391; experiment: as above; format: cell-based
Procedure, shortened: as §2

[14] = tested on: Candida duobushaemulonii AR 392; experiment: as above; format: cell-based
Procedure, shortened: as §2

[15] = tested on: Saccharomyces cerevisiae AR 399; experiment: as above; format: cell-based
Procedure, shortened: as §2

[16] = tested on: Candida krusei AR 397; experiment: as above; format: cell-based
Procedure, shortened: as §2

[17] = tested on: Candida lusitaniae AR 398; experiment: as above; format: cell-based
Procedure, shortened: as §2

[18] = tested on: Saccharomyces cerevisiae AR 400; experiment: as above; format: cell-based
Procedure, shortened: as §2

[19] = tested on: Candida duobushaemulonii AR 394; experiment: as above; format: cell-based
Procedure, shortened: as §2

[20] = tested on: Kodamae ohmeri AR 396; experiment: as above; format: cell-based
Procedure, shortened: as §2

[21] = tested on: Candida haemulonii AR 393; experiment: as above; format: cell-based; settings: Table 9 below the line: only 200 or 100 μg/mL tested; values reported as 100 are ≤100 μg/mL
Procedure, shortened: as §2

[22] = tested on: C. albicans Y537; experiment: MIC, YPD broth; format: cell-based, Candida albicans; settings: Table 8
[23] = Table 9 below the line: only 200 or 100 μg/mL tested, values reported as 100 are ≤100 μg/mL
[24] = Table 9 top part: titrations from 1.56 to 100 μg/mL

TVKGLVKWILATVKKFA [STIP3-16, TVKGLVKWILATVKKFA]
α helicity (%) [1]: 45% | MIC C. albicans MYA-2876 [2]: 12.5 µg/mL | MIC S. aureus ATCC BAA 1683 (IV) [3]: > (no inhibition was observed at the highest concentration of peptide tested: 100 μg/mL for the STIP3 variants) | MIC S. aureus ATCC BAA 2313 (XI) [4]: 100 µg/mL | MIC S. aureus ATCC 29213 [5]: 100 µg/mL | MIC S. aureus ATCC 33592 (III) [6]: 50 µg/mL | MIC S. aureus ATCC BAA 42 (VI) [7]: 50 µg/mL | MIC S. aureus ATCC BAA 2094 (V) [8]: 100 µg/mL | MIC S. aureus ATCC BAA 44 (I) [9]: 100 µg/mL | MIC S. aureus ATCC BAA 41 (II) [10]: 50 µg/mL | MIC (μg/mL) M. haemolytica [11]: 6.25 µg/mL | MIC (μg/mL) Candida haemulonii AR 395 [12]: > (values below the line were determined using two concentrations of peptide 200 or 100 μg/mL) | MIC (μg/mL) Candida duobushaemulonii AR 391 [13, 23]: > (values below the line were determined using two concentrations of peptide 200 or 100 μg/mL) | MIC (μg/mL) Candida duobushaemulonii AR 392 [14, 23]: > (values below the line were determined using two concentrations of peptide 200 or 100 μg/mL) | MIC (μg/mL) Saccharomyces cerevisiae AR 399 [15, 23]: ≤ 100 µg/mL | MIC (μg/mL) Candida krusei AR 397 [16, 23]: ≤ 100 µg/mL | MIC (μg/mL) Candida lusitaniae AR 398 [17, 23]: ≤ 100 µg/mL | MIC (μg/mL) Saccharomyces cerevisiae AR 400 [18, 23]: ≤ 100 µg/mL | MIC (μg/mL) Candida duobushaemulonii AR 394 [19, 23]: > (values below the line were determined using two concentrations of peptide 200 or 100 μg/mL) | MIC (μg/mL) Kodamae ohmeri AR 396 [20, 23]: ≤ 100 µg/mL | MIC (μg/mL) Candida haemulonii AR 393 [21]: > (values below the line were determined using two concentrations of peptide 200 or 100 μg/mL)

TVKGLVKWILNVVKKFA [STIP3-14, TVKGLVKWILNVVKKFA]
α helicity (%) [1]: 64% | MIC C. albicans Y537 [22]: 50 µg/mL | MIC C. albicans MYA-2876 [2]: 12.5 µg/mL | MIC S. aureus ATCC BAA 1683 (IV) [3]: 25 µg/mL | MIC S. aureus ATCC BAA 2313 (XI) [4]: 12.5 µg/mL | MIC S. aureus ATCC 29213 [5]: 25 µg/mL | MIC S. aureus ATCC 33592 (III) [6]: 12.5 µg/mL | MIC S. aureus ATCC BAA 42 (VI) [7]: 25 µg/mL | MIC S. aureus ATCC BAA 2094 (V) [8]: 50 µg/mL | MIC S. aureus ATCC BAA 44 (I) [9]: 25 µg/mL | MIC S. aureus ATCC BAA 41 (II) [10]: 25 µg/mL | MIC (μg/mL) Candida duobushaemulonii AR 391 [13, 24]: 50 µg/mL | MIC (μg/mL) Candida duobushaemulonii AR 392 [14, 24]: 50 µg/mL | MIC (μg/mL) Saccharomyces cerevisiae AR 399 [15, 24]: 25 µg/mL | MIC (μg/mL) Candida krusei AR 397 [16, 24]: 12.5 µg/mL | MIC (μg/mL) Candida lusitaniae AR 398 [17, 24]: 6.25 µg/mL | MIC (μg/mL) Saccharomyces cerevisiae AR 400 [18, 24]: 6.25 µg/mL | MIC (μg/mL) Candida duobushaemulonii AR 394 [19, 24]: 100 µg/mL | MIC (μg/mL) Kodamae ohmeri AR 396 [20, 24]: 25 µg/mL

Source: patent publication US12370235B2, “Synthetic, non-natural antimicrobial peptides inspired by Staphylococcus auricularis delta toxin” (University of Saskatchewan, priority 2021, dated 2025)
